Data taken from patent US10035801B2, “Pyrazolo compounds and uses thereof” (CONSTELLATION PHARMACEUTICALS, INC., priority 2013, dated 2018).

target: T1, KDM5A (Homo sapiens, UniProt P29375); assay: KDM5 enzyme assay, KDM5A HTRF (Example 463); type: biochemical; conditions: compounds of Examples 1-432; read-out: Example 463 Assay KDM5A HTRF IC50
T1 construct: Full length KDM5A enzyme was expressed and purified inhouse; made in house
T1 sequence (P29375 whole entry): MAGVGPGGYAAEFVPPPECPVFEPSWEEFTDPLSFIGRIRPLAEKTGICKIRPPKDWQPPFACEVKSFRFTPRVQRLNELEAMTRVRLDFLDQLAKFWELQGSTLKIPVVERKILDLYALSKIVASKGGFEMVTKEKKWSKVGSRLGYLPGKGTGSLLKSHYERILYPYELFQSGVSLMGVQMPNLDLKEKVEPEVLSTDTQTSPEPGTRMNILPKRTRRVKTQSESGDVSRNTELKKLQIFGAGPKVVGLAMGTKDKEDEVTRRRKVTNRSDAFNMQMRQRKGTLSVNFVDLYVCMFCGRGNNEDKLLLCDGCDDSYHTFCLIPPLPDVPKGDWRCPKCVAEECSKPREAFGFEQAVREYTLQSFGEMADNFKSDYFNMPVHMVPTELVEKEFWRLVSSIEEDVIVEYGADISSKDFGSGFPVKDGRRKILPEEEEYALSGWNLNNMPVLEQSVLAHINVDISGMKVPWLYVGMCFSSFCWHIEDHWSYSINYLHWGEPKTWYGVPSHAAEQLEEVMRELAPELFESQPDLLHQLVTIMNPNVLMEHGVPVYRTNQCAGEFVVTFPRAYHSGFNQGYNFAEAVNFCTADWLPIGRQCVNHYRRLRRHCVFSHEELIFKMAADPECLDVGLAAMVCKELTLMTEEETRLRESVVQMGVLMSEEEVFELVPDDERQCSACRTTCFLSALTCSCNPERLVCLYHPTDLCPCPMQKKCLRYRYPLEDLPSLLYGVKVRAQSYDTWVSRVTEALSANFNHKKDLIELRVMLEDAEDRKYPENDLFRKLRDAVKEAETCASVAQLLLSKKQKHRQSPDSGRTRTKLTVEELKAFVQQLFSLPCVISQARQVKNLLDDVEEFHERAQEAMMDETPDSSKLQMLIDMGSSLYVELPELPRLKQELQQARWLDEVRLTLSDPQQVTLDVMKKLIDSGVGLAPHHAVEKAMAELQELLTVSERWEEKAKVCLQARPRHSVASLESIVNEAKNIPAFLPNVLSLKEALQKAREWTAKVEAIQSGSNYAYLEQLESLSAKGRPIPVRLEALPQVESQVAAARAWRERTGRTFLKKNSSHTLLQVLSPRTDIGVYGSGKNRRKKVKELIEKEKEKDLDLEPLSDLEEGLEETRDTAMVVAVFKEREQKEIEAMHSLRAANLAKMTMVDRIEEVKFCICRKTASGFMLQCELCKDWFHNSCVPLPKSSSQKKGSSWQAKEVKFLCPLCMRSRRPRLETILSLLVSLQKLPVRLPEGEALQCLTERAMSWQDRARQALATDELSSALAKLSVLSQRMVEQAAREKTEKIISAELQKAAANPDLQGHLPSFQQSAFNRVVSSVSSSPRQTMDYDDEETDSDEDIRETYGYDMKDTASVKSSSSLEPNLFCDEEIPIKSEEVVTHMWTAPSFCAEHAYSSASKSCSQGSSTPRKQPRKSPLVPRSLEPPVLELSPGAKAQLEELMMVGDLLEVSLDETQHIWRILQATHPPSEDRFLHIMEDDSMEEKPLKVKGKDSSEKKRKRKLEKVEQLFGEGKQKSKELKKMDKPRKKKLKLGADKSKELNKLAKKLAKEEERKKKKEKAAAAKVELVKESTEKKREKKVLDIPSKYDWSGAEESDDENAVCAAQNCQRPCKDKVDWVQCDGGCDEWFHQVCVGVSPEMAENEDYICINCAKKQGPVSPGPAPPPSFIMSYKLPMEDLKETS
Protocol: Full length KDM5A enzyme was expressed and purified inhouse. Biotin-H3K4me3 peptide was purchased from New England Biolabs. HTRF reagents (containing Eu-labeled H3K4me1-2 antibody, and streptavidin-XL665) were purchased from Cis-Bio International. Plates were read on an Envision multi-label plate reader Perkin Elmer).
The HTRF assay mixture contained 2 nM full length KDM5A enzyme, 100 nM H3K4Me3 peptide substrate, 1 uM 2-OG, 100 uM Fe^2+, 500 uM ascorbate. 50 mM HEPES pH 7.0 buffer, 0.01% Triton-X 100, 2 mM DTT. […] The plates were incubated at room temperature for 60 minutes and then read in the Envision plate reader.

| SMILES | IC50 |
| --- | --- |
| CC(C)c1c(-c2ccnn2CC2CC2)[nH]c2c(C#N)cnn2c1=O (single isomer, unassigned) [Example 15, 5-(1-(cyclopropylmethyl)-1H-pyrazol-5-yl)-6-isopropyl-7-oxo-4,7-dihydropyrazolo[1,5-a]pyrimidine-3-carbonitrile] | 47 nM |
| CC(C)c1c(-c2ccn(CC3CC3)n2)[nH]c2c(C#N)cnn2c1=O (single isomer, unassigned) [Example 16, 5-(1-(cyclopropylmethyl)-1H-pyrazol-3-yl)-6-isopropyl-7-oxo-4,7-dihydropyrazolo[1,5-a]pyrimidine-3-carbonitrile] | 11 nM |
| CC(C)c1c(-c2ccc(N3CCN(C)CC3)cc2)[nH]c2c(C#N)cnn2c1=O [Compound 346] | 40 nM |
| CC(C)c1c(-c2cccc(CNS(C)(=O)=O)c2)[nH]c2c(C#N)cnn2c1=O [Compound 348] | 14 nM |
| CC(C)c1c(-c2cccc(-c3ccccc3)c2)[nH]c2c(C#N)cnn2c1=O [Compound 353] | 14 nM |
| CC(C)c1c(-c2cccc(OCC3CC3)c2)[nH]c2c(C#N)cnn2c1=O [Compound 355] | 40 nM |
| CC(C)c1c(-c2cccc(OCc3ccccc3)c2)[nH]c2c(C#N)cnn2c1=O [Compound 356] | 44 nM |
| CC(C)c1c(-c2cccc(COc3ccccc3)c2)[nH]c2c(C#N)cnn2c1=O [Compound 358] | 25 nM |
| CC(C)c1c(-c2cnn(-c3cccc(F)c3)c2)[nH]c2c(C#N)cnn2c1=O [Compound 359] | 20 nM |
| CC(C)c1c(/C=C/C2CC2)[nH]c2c(C#N)cnn2c1=O [Compound 360] | 28 nM |
| CC(C)c1c(-c2cnn(-c3ccc(F)cc3)c2)[nH]c2c(C#N)cnn2c1=O [Compound 362] | 24 nM |
| CCCn1cc(-c2[nH]c3c(C#N)cnn3c(=O)c2C(C)C)cn1 [Compound 364] | 18 nM |
| CCCCn1cc(-c2[nH]c3c(C#N)cnn3c(=O)c2C(C)C)cn1 [Compound 365] | 18 nM |
| CC(C)c1c(-c2cnn(CCNc3ccccc3)c2)[nH]c2c(C#N)cnn2c1=O [Compound 366] | 18 nM |
| CNC(=O)c1ccc(-c2[nH]c3c(C#N)cnn3c(=O)c2C(C)C)cc1 [Compound 368] | 75 nM |
| CC(C)c1c(-c2cnn(CCN3CC(F)(F)C3)c2)[nH]c2c(C#N)cnn2c1=O [Compound 370] | 8 nM |
| C/C=C/c1[nH]c2c(C#N)cnn2c(=O)c1C(C)C [Compound 373] | 24 nM |
| CC(=O)Nc1cccc(-c2[nH]c3c(C#N)cnn3c(=O)c2C(C)C)c1 [Compound 374] | 38 nM |
| CC(C)c1c(-c2cccc(NS(C)(=O)=O)c2)[nH]c2c(C#N)cnn2c1=O [Compound 375] | 19 nM |

| SMILES | IC50 |
| --- | --- |
| CC(=O)N1CCN(c2ccc(-c3[nH]c4c(C#N)cnn4c(=O)c3C(C)C)cc2)CC1 [Compound 377] | 22 nM |
| CC(C)c1c(-c2cnn(CC(F)F)c2)[nH]c2c(C#N)cnn2c1=O [Compound 378] | 14 nM |
| CC(C)c1ccc(-c2[nH]c3c(C#N)cnn3c(=O)c2C(C)C)o1 [Compound 379] | 11 nM |
| CC(C)c1c(-c2cnn(C3CCC(F)(F)C3)c2)[nH]c2c(C#N)cnn2c1=O (stereo not drawn) [Compound 380] | 48 nM |
| CC(C)c1c(-c2cnn([C@H]3CC[C@@H](O)C3)c2)[nH]c2c(C#N)cnn2c1=O [Compound 381] | 30 nM |
| CC(C)c1c(-c2cnn([C@H]3CC[C@H](O)C3)c2)[nH]c2c(C#N)cnn2c1=O [Compound 382] | 48 nM |
| CC(C)c1c(-c2cccc(-c3cn[nH]c3)c2)[nH]c2c(C#N)cnn2c1=O [Compound 383] | 31 nM |
| CC(C)c1c(-c2ccc(Br)o2)[nH]c2c(C#N)cnn2c1=O [Compound 384] | 13 nM |
| CC(C)c1c(-c2cccc(C#Cc3ccccc3)c2)[nH]c2c(C#N)cnn2c1=O [Compound 387] | 130 nM |
| CC(C)c1c(-c2cnn(C3CCC(F)C3)c2)[nH]c2c(C#N)cnn2c1=O (stereo not drawn) [Compound 389] | 33 nM |
| COCC(C)(C)n1cc(-c2[nH]c3c(C#N)cnn3c(=O)c2C(C)C)cn1 [Compound 390] | 55 nM |
| C=CC(=O)N1CC(n2cc(-c3[nH]c4c(C#N)cnn4c(=O)c3C(C)C)cn2)C1 [Compound 391] | 11 nM |
| CCC(=O)N1CC(n2cc(-c3[nH]c4c(C#N)cnn4c(=O)c3C(C)C)cn2)C1 [Compound 392] | 20 nM |
| CC(C)c1c(-c2ccc(=O)[nH]c2)[nH]c2c(C#N)cnn2c1=O [Compound 393] | 12 nM |
| CC(C)c1c(-c2cccc(/C=C/c3ccccc3)c2)[nH]c2c(C#N)cnn2c1=O [Compound 394] | 20 nM |
| CC(C)c1c(-c2ccc(N3CCNCC3)cc2)[nH]c2c(C#N)cnn2c1=O [Compound 395] | 10 nM |
| CC(C)c1c(-c2cnn(C(C)(C)CF)c2)[nH]c2c(C#N)cnn2c1=O [Compound 396] | 34 nM |
| CC(C)c1c(-c2c[nH]nc2C(F)(F)F)[nH]c2c(C#N)cnn2c1=O [Compound 397] | 32 nM |
| Cc1cc(C)cc(-c2[nH]c3c(C#N)cnn3c(=O)c2C(C)C)c1 [Compound 398] | 41 nM |

Further compounds by falling IC50, results first:

| IC50 | SMILES |
| --- | --- |
| 140 nM | CC(C)NC(=O)c1ccc(-c2[nH]c3c(C#N)cnn3c(=O)c2C(C)C)cc1 [Compound 345] |
| 85 nM | CNC(=O)c1ccc(-c2[nH]c3c(C#N)cnn3c(=O)c2C(C)C)cc1F [Compound 369] |
| 77 nM | CC(C)c1c(-c2ccc(C(F)(F)F)c(C3CC3)c2)[nH]c2c(C#N)cnn2c1=O [Compound 354] |
| 54 nM | CC(C)c1c(-c2ccc(S(=O)(=O)N3CCOCC3)cc2)[nH]c2c(C#N)cnn2c1=O [Compound 399] |
| 52 nM | CC(C)c1c(-c2ccc(C(F)(F)F)nc2)[nH]c2c(C#N)cnn2c1=O [Compound 361] |
| 27 nM | CC(C)c1c(-c2ccc(C(=O)NC3CC3)cc2)[nH]c2c(C#N)cnn2c1=O [Compound 351] |
| 27 nM | CC(C)c1c(-c2cnn(CCF)c2)[nH]c2c(C#N)cnn2c1=O [Compound 352] |
| 25 nM | Cc1nc(C)c(-c2[nH]c3c(C#N)cnn3c(=O)c2C(C)C)s1 [Compound 363] |
| 25 nM | CC(C)c1c(-c2ccc(C(N)=O)cc2)[nH]c2c(C#N)cnn2c1=O [Compound 367] |
| 25 nM | CC(C)c1c(-c2cccc(CCc3ccccc3)c2)[nH]c2c(C#N)cnn2c1=O [Compound 388] |
| 24 nM | CC(C)c1c(-c2cc(Cl)cc(C#N)c2)[nH]c2c(C#N)cnn2c1=O [Compound 347] |
| 22 nM | CC(C)c1c(-c2cccc(CN3CCOCC3)c2)[nH]c2c(C#N)cnn2c1=O [Compound 357] |
| 21 nM | CC(C)c1c(-c2cccc(Nc3ccccc3)c2)[nH]c2c(C#N)cnn2c1=O [Compound 385] |
| 20 nM | CC(C)c1c(-c2ccc(S(C)(=O)=O)cc2)[nH]c2c(C#N)cnn2c1=O [Compound 350] |
| 19 nM | CC(C)c1c(-c2ccc(C(=O)N3CCOCC3)cc2)[nH]c2c(C#N)cnn2c1=O [Compound 376] |
| 15 nM | CC(C)c1c(-c2cnn(CCNCC(F)(F)F)c2)[nH]c2c(C#N)cnn2c1=O [Compound 372] |
| 14 nM | CC(C)c1c(-c2cccc(-c3ccn[nH]3)c2)[nH]c2c(C#N)cnn2c1=O [Compound 349] |
| 12 nM | Cc1ncc(-c2[nH]c3c(C#N)cnn3c(=O)c2C(C)C)s1 [Compound 386] |
| 11 nM | CC(C)c1c(-c2cnn(CCN3CCC(F)(F)C3)c2)[nH]c2c(C#N)cnn2c1=O [Compound 371] |
